Assay [1] concerns the target T1, Melanocortin receptor 4 (Homo sapiens, UniProt P32245). As to the kind of experiment: Agonist activity at human MC4R expressed in CHO cells assessed as cAMP accumulation at […] relative to [125I]NDPalphaMSH.
The species entered for assay [2] is Homo sapiens. As to the kind of experiment: Selectivity for human cloned MC5R over human cloned MC3R.
The species entered for assay [3] is Homo sapiens. Nature of the assay: Selectivity for human cloned MC5R over human cloned MC1bR.
Assay [4] deals with Melanocortin receptor (M4 and M5) (Homo sapiens) (UniProt P32245+P33032). As to the kind of experiment: Selectivity for human cloned MC5R over human cloned MC4R. The class given is protein assay.
Assay [5] concerns the target T2, Melanocortin receptor 3 (Homo sapiens, UniProt P41968). Nature of the assay: Agonist activity at human MC3R expressed in CHO cells assessed as cAMP accumulation at […] relative to [125I]NDPalphaMSH. The class given is functional, cell-based. A general note: Changes in cAMP serve as a functional read-out for many G protein-coupled receptors.
In assay [6] the target is T2, Melanocortin receptor 3. As to the kind of experiment: Agonist activity at human MC3R expressed in CHO cells assessed as cAMP accumulation at 2 uM relative to [125I]NDPalphaMSH. The assay is classed as functional, cell-based.
The target of assay [7] is T1, Melanocortin receptor 4. As to the kind of experiment: Agonist activity at human MC4R expressed in CHO cells assessed as cAMP accumulation at 2 uM relative to [125I]NDPalphaMSH. The class given is functional, cell-based. The settings on record: filed as partial agonist.

T2 sequence (P41968 whole entry): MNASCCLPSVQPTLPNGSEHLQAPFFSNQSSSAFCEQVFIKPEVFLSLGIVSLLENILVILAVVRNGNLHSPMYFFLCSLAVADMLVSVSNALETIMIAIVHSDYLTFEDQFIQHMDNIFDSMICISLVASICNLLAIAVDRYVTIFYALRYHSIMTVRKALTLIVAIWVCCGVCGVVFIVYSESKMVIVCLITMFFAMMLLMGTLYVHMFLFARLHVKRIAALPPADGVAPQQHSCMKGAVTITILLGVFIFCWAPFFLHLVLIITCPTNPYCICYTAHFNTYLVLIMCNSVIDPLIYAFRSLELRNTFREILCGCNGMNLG
Chain of Melanocortin receptor (M4 and M5) (Homo sapiens) (P32245 whole entry, looked up): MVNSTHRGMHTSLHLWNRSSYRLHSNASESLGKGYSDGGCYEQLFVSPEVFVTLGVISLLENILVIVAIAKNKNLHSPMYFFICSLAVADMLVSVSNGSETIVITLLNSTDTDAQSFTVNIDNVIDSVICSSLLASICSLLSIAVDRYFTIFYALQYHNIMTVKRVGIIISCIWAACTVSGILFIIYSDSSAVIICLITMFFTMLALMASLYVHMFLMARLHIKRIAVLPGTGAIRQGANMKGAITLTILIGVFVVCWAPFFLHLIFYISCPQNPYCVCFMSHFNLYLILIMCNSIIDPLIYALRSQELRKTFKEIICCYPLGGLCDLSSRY
Chain of Melanocortin receptor (M4 and M5) (Homo sapiens) (P33032 whole entry, looked up): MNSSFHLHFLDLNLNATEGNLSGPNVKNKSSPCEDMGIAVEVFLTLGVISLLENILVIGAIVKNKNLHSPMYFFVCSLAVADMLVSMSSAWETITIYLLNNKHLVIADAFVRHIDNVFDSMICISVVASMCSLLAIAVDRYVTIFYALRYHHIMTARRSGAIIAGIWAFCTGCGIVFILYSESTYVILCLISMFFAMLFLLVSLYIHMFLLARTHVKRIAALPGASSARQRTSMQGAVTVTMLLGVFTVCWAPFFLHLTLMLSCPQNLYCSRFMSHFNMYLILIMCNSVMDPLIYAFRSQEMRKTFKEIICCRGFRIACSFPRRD
T1 sequence (P32245 whole entry): as the sequence (P32245 whole entry, looked up) above

As to `CCCC[C@H](NC(C)=O)C(=O)N[C@H]1CC(=O)NCCCC[C@@H](C(N)=O)NC(=O)[C@H](Cc2c[nH]c3ccccc23)NC(=O)[C@@H]2CCCCN2C(=O)[C@H](Cc2ccc(-c3ccccc3)cc2)NC(=O)[C@@H]2Cc3ccccc3CN2C1=O`, the Activity on Melanocortin receptor 4 [1] stood at 0%; at Melanocortin receptor 3 [5], 10%. For the same compound, the figures for the Ratio IC50 (in the assay filed under Homo sapiens [2]; in the assay filed under Homo sapiens [3]; in assay [4]) were 1440, 260 and 260, respectively.
As to `CCCC[C@H](NC(C)=O)C(=O)N[C@H]1CC(=O)NCCCC[C@@H](C(N)=O)NC(=O)[C@H](Cc2c[nH]c3ccccc23)NC(=O)[C@@H]2CCCCN2C(=O)[C@H](Cc2ccc(-c3ccccc3)cc2)NC(=O)[C@@H]2CC3CCCCC3N2C1=O` (stereo not given in full), the Activity at Melanocortin receptor 3 [6] was 5%; on Melanocortin receptor 4 [7], 40%. The Ratio IC50 (in the assay filed under Homo sapiens [2]; in the assay filed under Homo sapiens [3]; in assay [4]) was > 5000 throughout.
